Here are results for 29 molecules from ChEMBL document CHEMBL1955849, “Design and synthesis of thiourea compounds that inhibit transmembrane anchored carbonic anhydrases” (Bioorg Med Chem, 2012).

The term Ki denotes a dissociation constant, usually derived from enzyme kinetics or from competition with a known ligand. A lower Ki goes with higher affinity. Usually solubility stands for the concentration that dissolves in the medium under given conditions. High values mean a readily soluble substance, low ones a poorly soluble substance.

Targets include Carbonic anhydrase 2 (Homo sapiens, UniProt P00918); Carbonic anhydrase 12 (Homo sapiens, UniProt O43570); Carbonic anhydrase 1 (Homo sapiens, UniProt P00915); Carbonic anhydrase 14 (Homo sapiens, UniProt Q9ULX7); Carbonic anhydrase 9 (Homo sapiens, UniProt Q16790).
The nature of series [1]: Solubility of the compound in water. The series is classed as physicochemical.

Chain of Carbonic anhydrase 12 (O43570 whole entry): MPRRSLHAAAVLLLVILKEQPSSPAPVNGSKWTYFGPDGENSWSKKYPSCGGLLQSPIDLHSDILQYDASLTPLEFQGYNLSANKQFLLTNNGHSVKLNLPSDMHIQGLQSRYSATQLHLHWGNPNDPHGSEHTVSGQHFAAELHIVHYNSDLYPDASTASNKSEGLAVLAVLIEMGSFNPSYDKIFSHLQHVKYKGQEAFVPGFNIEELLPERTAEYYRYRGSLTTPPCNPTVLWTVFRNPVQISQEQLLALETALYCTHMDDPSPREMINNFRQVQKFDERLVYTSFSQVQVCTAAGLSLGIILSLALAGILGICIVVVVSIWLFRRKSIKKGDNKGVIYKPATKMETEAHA
Chain of Carbonic anhydrase 14 (Q9ULX7 whole entry): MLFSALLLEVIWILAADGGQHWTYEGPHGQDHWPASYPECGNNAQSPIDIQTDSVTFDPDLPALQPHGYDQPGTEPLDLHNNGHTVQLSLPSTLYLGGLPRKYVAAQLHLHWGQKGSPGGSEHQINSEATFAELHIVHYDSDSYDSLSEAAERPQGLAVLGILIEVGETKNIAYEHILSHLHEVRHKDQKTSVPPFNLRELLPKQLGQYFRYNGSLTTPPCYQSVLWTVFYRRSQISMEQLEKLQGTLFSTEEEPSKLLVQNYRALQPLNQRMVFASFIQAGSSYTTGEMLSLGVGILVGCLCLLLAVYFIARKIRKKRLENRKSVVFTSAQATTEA
Chain of Carbonic anhydrase 1 (P00915 whole entry): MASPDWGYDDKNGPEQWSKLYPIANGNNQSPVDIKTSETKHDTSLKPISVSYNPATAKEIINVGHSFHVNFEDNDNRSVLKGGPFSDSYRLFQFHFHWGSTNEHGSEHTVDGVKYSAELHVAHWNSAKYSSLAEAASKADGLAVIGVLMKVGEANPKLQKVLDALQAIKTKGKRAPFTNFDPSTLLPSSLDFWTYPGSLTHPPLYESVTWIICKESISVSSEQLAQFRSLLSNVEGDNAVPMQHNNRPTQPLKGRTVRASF

`CC(=O)OC[C@H]1O[C@@H](NC(=S)Nc2ccc(S(N)(=O)=O)cc2)[C@H](OC(C)=O)[C@@H](OC(C)=O)[C@@H]1OC(C)=O`: the Ki is 7 nM at Carbonic anhydrase 2, 7.2 nM on Carbonic anhydrase 12, 4930 nM on Carbonic anhydrase 1 and 8.3 nM on Carbonic anhydrase 14.

Turning to `CC(=O)OC[C@H]1O[C@@H](NC(=S)NCc2ccc(S(N)(=O)=O)cc2)[C@H](OC(C)=O)[C@@H](OC(C)=O)[C@@H]1OC(C)=O`, the Ki was found to be 7.8 nM at Carbonic anhydrase 2, 7.5 nM at Carbonic anhydrase 12, 100 nM at Carbonic anhydrase 1 and 8.5 nM at Carbonic anhydrase 14.

For the molecule `CC(=O)OC[C@H]1O[C@@H](NC(=S)NCCc2ccc(S(N)(=O)=O)cc2)[C@H](OC(C)=O)[C@@H](OC(C)=O)[C@@H]1OC(C)=O`, the Ki on Carbonic anhydrase 9 was 451 nM; at Carbonic anhydrase 2, 7.3 nM; on Carbonic anhydrase 12, 8.9 nM; at Carbonic anhydrase 1, 5510 nM; at Carbonic anhydrase 14, 8.8 nM.

As for `CC(=O)OC[C@H]1O[C@@H](NC(=S)NNC(=O)c2ccc(S(N)(=O)=O)cc2)[C@H](OC(C)=O)[C@@H](OC(C)=O)[C@@H]1OC(C)=O`, the Ki on Carbonic anhydrase 9 turned out to be 8.7 nM; on Carbonic anhydrase 2, 10 nM; on Carbonic anhydrase 12, 7.3 nM; at Carbonic anhydrase 1, 3770 nM; on Carbonic anhydrase 14, 10.3 nM.

`CC(=O)OC[C@H]1O[C@@H](NC(=S)Nc2ccc(S(N)(=O)=O)cc2)[C@H](OC(C)=O)[C@@H](OC(C)=O)[C@H]1OC(C)=O`: the inhibitory constant (Ki) at Carbonic anhydrase 2 amounted to 524 nM; at Carbonic anhydrase 12 it was 45.6 nM; at Carbonic anhydrase 1, 6710 nM; on Carbonic anhydrase 14 it was 126 nM.

With `CC(=O)OC[C@H]1O[C@@H](NC(=S)NCc2ccc(S(N)(=O)=O)cc2)[C@H](OC(C)=O)[C@@H](OC(C)=O)[C@H]1OC(C)=O`, the inhibition constant Ki on Carbonic anhydrase 2 turned out to be 11.9 nM; on Carbonic anhydrase 12, 100 nM; at Carbonic anhydrase 1, 6340 nM; at Carbonic anhydrase 14, 807 nM.

Take `CC(=O)OC[C@H]1O[C@@H](NC(=S)NCCc2ccc(S(N)(=O)=O)cc2)[C@H](OC(C)=O)[C@@H](OC(C)=O)[C@H]1OC(C)=O`: the inhibition constant Ki worked out at 433 nM at Carbonic anhydrase 9; 297 nM on Carbonic anhydrase 2; 8.8 nM at Carbonic anhydrase 12; 100 nM on Carbonic anhydrase 1; 8.7 nM on Carbonic anhydrase 14.

For the molecule `CC(=O)OC[C@H]1O[C@@H](NC(=S)NNC(=O)c2ccc(S(N)(=O)=O)cc2)[C@H](OC(C)=O)[C@@H](OC(C)=O)[C@H]1OC(C)=O`, the Ki stood at 3.3 nM at Carbonic anhydrase 9; 8.6 nM on Carbonic anhydrase 2; 7.8 nM on Carbonic anhydrase 12; 6410 nM on Carbonic anhydrase 1; 10.7 nM at Carbonic anhydrase 14.

Turning to `CC(=O)OC[C@H]1O[C@@H](NC(=S)Nc2ccc(S(N)(=O)=O)cc2)[C@H](OC(C)=O)[C@@H](OC(C)=O)[C@@H]1O[C@H]1O[C@H](COC(C)=O)[C@@H](OC(C)=O)[C@H](OC(C)=O)[C@H]1OC(C)=O`, the Ki at Carbonic anhydrase 2 is 539 nM; on Carbonic anhydrase 12, 10.1 nM; at Carbonic anhydrase 1, 6040 nM; at Carbonic anhydrase 14, 7.9 nM.

For the molecule `CC(=O)OC[C@H]1O[C@@H](NC(=S)NCc2ccc(S(N)(=O)=O)cc2)[C@H](OC(C)=O)[C@@H](OC(C)=O)[C@@H]1O[C@H]1O[C@H](COC(C)=O)[C@@H](OC(C)=O)[C@H](OC(C)=O)[C@H]1OC(C)=O`, the Ki stood at 7.3 nM on Carbonic anhydrase 2, 8.4 nM on Carbonic anhydrase 12, 4570 nM at Carbonic anhydrase 1 and 8.6 nM on Carbonic anhydrase 14.

For the molecule `CC(=O)OC[C@H]1O[C@@H](NC(=S)NCCc2ccc(S(N)(=O)=O)cc2)[C@H](OC(C)=O)[C@@H](OC(C)=O)[C@@H]1O[C@H]1O[C@H](COC(C)=O)[C@@H](OC(C)=O)[C@H](OC(C)=O)[C@H]1OC(C)=O`, the Ki on Carbonic anhydrase 9 was 122 nM; on Carbonic anhydrase 2 it was 9.8 nM; on Carbonic anhydrase 12, 8.4 nM; at Carbonic anhydrase 1 it was 3720 nM; at Carbonic anhydrase 14 it was 8.7 nM.

As to `CC(=O)OC[C@H]1O[C@@H](NC(=S)NNC(=O)c2ccc(S(N)(=O)=O)cc2)[C@H](OC(C)=O)[C@@H](OC(C)=O)[C@@H]1O[C@H]1O[C@H](COC(C)=O)[C@@H](OC(C)=O)[C@H](OC(C)=O)[C@H]1OC(C)=O`, the Ki worked out at 10.2 nM on Carbonic anhydrase 2, 7.6 nM on Carbonic anhydrase 12, 2940 nM at Carbonic anhydrase 1 and 10.5 nM at Carbonic anhydrase 14.

On to `CC(=O)OC[C@H]1O[C@@H](O[C@H]2[C@H](OC(C)=O)[C@@H](OC(C)=O)[C@H](NC(=S)Nc3ccc(S(N)(=O)=O)cc3)O[C@@H]2COC(C)=O)[C@H](OC(C)=O)[C@@H](OC(C)=O)[C@H]1OC(C)=O`, for which the Ki on Carbonic anhydrase 2 was 7.6 nM; at Carbonic anhydrase 12, 8.2 nM; at Carbonic anhydrase 1 it was 100 nM; on Carbonic anhydrase 14 it was 8.6 nM.

Regarding `CC(=O)OC[C@H]1O[C@@H](O[C@H]2[C@H](OC(C)=O)[C@@H](OC(C)=O)[C@H](NC(=S)NCc3ccc(S(N)(=O)=O)cc3)O[C@@H]2COC(C)=O)[C@H](OC(C)=O)[C@@H](OC(C)=O)[C@H]1OC(C)=O`, the Ki on Carbonic anhydrase 2 was 390 nM; at Carbonic anhydrase 12, 7.4 nM; on Carbonic anhydrase 1 it was 110 nM; at Carbonic anhydrase 14 it was 8.5 nM.

Take `CC(=O)OC[C@H]1O[C@@H](O[C@H]2[C@H](OC(C)=O)[C@@H](OC(C)=O)[C@H](NC(=S)NCCc3ccc(S(N)(=O)=O)cc3)O[C@@H]2COC(C)=O)[C@H](OC(C)=O)[C@@H](OC(C)=O)[C@H]1OC(C)=O`: the Ki on Carbonic anhydrase 9 worked out at 362 nM; at Carbonic anhydrase 2, 8.7 nM; at Carbonic anhydrase 12 it was 48.1 nM; at Carbonic anhydrase 1, 3770 nM; on Carbonic anhydrase 14 it was 9.1 nM.

Regarding `CC(=O)OC[C@H]1O[C@@H](O[C@H]2[C@H](OC(C)=O)[C@@H](OC(C)=O)[C@H](NC(=S)NNC(=O)c3ccc(S(N)(=O)=O)cc3)O[C@@H]2COC(C)=O)[C@H](OC(C)=O)[C@@H](OC(C)=O)[C@H]1OC(C)=O`, the Ki at Carbonic anhydrase 2 was 6.4 nM; at Carbonic anhydrase 12 it was 8.1 nM; at Carbonic anhydrase 1, 5900 nM; at Carbonic anhydrase 14 it was 10.6 nM.

Regarding `NS(=O)(=O)c1ccc(NC(=S)N[C@@H]2O[C@H](CO)[C@@H](O)[C@H](O)[C@H]2O)cc1`, the Ki on Carbonic anhydrase 9 worked out at 282 nM; on Carbonic anhydrase 2 it was 7 nM; at Carbonic anhydrase 12, 8.2 nM; on Carbonic anhydrase 1, 7680 nM; at Carbonic anhydrase 14 it was 41 nM. The solubility in series [1] was over 20 mg/mL.

As for `NS(=O)(=O)c1ccc(CNC(=S)N[C@@H]2O[C@H](CO)[C@@H](O)[C@H](O)[C@H]2O)cc1`, the Ki on Carbonic anhydrase 2 came out at 377 nM; on Carbonic anhydrase 12 it was 8.2 nM; at Carbonic anhydrase 1 it was 7500 nM; at Carbonic anhydrase 14, 16 nM. For the same molecule, the solubility in series [1] is over 20 mg/mL.

For the molecule `NS(=O)(=O)c1ccc(CCNC(=S)N[C@@H]2O[C@H](CO)[C@@H](O)[C@H](O)[C@H]2O)cc1`, the Ki on Carbonic anhydrase 9 was 8.7 nM; on Carbonic anhydrase 2 it was 108 nM; at Carbonic anhydrase 12, 9.7 nM; at Carbonic anhydrase 1 it was 9 nM; at Carbonic anhydrase 14 it was 8 nM. Moreover, in series [1], the solubility is over 20 mg/mL.

For `NS(=O)(=O)c1ccc(C(=O)NNC(=S)N[C@@H]2O[C@H](CO)[C@@H](O)[C@H](O)[C@H]2O)cc1`, the Ki came out at 525 nM on Carbonic anhydrase 2, 8.6 nM on Carbonic anhydrase 12, 7880 nM on Carbonic anhydrase 1 and 8 nM at Carbonic anhydrase 14. The molecule also had a solubility in series [1] of over 20 mg/mL.

For the molecule `NS(=O)(=O)c1ccc(NC(=S)N[C@@H]2O[C@H](CO)[C@H](O)[C@H](O)[C@H]2O)cc1`, the Ki at Carbonic anhydrase 2 amounted to 222 nM; on Carbonic anhydrase 12 it was 20.1 nM; at Carbonic anhydrase 1, 6840 nM; at Carbonic anhydrase 14, 125 nM. The molecule also showed a solubility in series [1] of over 20 mg/mL.

Take `NS(=O)(=O)c1ccc(CNC(=S)N[C@@H]2O[C@H](CO)[C@H](O)[C@H](O)[C@H]2O)cc1`: the Ki came out at 6.9 nM at Carbonic anhydrase 9; 60 nM at Carbonic anhydrase 2; 111 nM at Carbonic anhydrase 12; 6420 nM on Carbonic anhydrase 1; 129 nM at Carbonic anhydrase 14. The molecule also had a solubility in series [1] of over 20 mg/mL.

For the molecule `NS(=O)(=O)c1ccc(CCNC(=S)N[C@@H]2O[C@H](CO)[C@H](O)[C@H](O)[C@H]2O)cc1`, the Ki was 2.8 nM on Carbonic anhydrase 9; 9.3 nM on Carbonic anhydrase 2; 10.2 nM on Carbonic anhydrase 12; 5790 nM on Carbonic anhydrase 1; 108 nM at Carbonic anhydrase 14. Besides, the solubility in series [1] is over 20 mg/mL.

As for `NS(=O)(=O)c1ccc(C(=O)NNC(=S)N[C@@H]2O[C@H](CO)[C@H](O)[C@H](O)[C@H]2O)cc1`, the Ki at Carbonic anhydrase 2 was 344 nM; at Carbonic anhydrase 12 it was 8.5 nM; at Carbonic anhydrase 1, 4040 nM; at Carbonic anhydrase 14, 8.2 nM. Further, in series [1], the solubility is over 20 mg/mL.

Consider `NS(=O)(=O)c1ccc(NC(=S)N[C@@H]2O[C@H](CO)[C@@H](O[C@H]3O[C@H](CO)[C@@H](O)[C@H](O)[C@H]3O)[C@H](O)[C@H]2O)cc1`, for which the Ki on Carbonic anhydrase 9 was 8.4 nM; at Carbonic anhydrase 2 it was 7.5 nM; at Carbonic anhydrase 12 it was 300 nM; on Carbonic anhydrase 1 it was 7920 nM; on Carbonic anhydrase 14, 9.8 nM. This molecule also came in with a solubility in series [1] of over 20 mg/mL.

Take `NS(=O)(=O)c1ccc(CNC(=S)N[C@@H]2O[C@H](CO)[C@@H](O[C@H]3O[C@H](CO)[C@@H](O)[C@H](O)[C@H]3O)[C@H](O)[C@H]2O)cc1`: the inhibitory constant (Ki) on Carbonic anhydrase 9 was determined as 8.4 nM; on Carbonic anhydrase 2, 376 nM; on Carbonic anhydrase 12, 12.5 nM; at Carbonic anhydrase 1, 6300 nM; at Carbonic anhydrase 14, 8.5 nM. Also, the solubility in series [1] was over 20 mg/mL.

Take `NS(=O)(=O)c1ccc(CCNC(=S)N[C@@H]2O[C@H](CO)[C@@H](O[C@H]3O[C@H](CO)[C@@H](O)[C@H](O)[C@H]3O)[C@H](O)[C@H]2O)cc1`: the inhibition constant Ki stood at 2.1 nM at Carbonic anhydrase 9; 271 nM at Carbonic anhydrase 2; 9.8 nM at Carbonic anhydrase 12; 4260 nM on Carbonic anhydrase 1; 7.8 nM on Carbonic anhydrase 14. In addition, the solubility in series [1] was over 20 mg/mL.

As to `NS(=O)(=O)c1ccc(C(=O)NNC(=S)N[C@@H]2O[C@H](CO)[C@@H](O[C@H]3O[C@H](CO)[C@@H](O)[C@H](O)[C@H]3O)[C@H](O)[C@H]2O)cc1`, the Ki was determined as 109 nM at Carbonic anhydrase 2, 8.2 nM on Carbonic anhydrase 12 and 8.6 nM on Carbonic anhydrase 14. For the same molecule, in series [1], the solubility is over 20 mg/mL.

As for `NS(=O)(=O)c1ccc(C(=O)NNC(=S)N[C@@H]2O[C@H](CO)[C@@H](O[C@@H]3O[C@H](CO)[C@H](O)[C@H](O)[C@H]3O)[C@H](O)[C@H]2O)cc1`, the inhibition constant Ki came out at 7.4 nM on Carbonic anhydrase 2, 8.7 nM on Carbonic anhydrase 12 and 8.5 nM on Carbonic anhydrase 14. Also, the solubility in series [1] is over 20 mg/mL.
